In patent US20050054692A1, “Azanthranylalkyl and -cycloalkyl amides and their use as VEGF receptor inhibitors” (priority 2000, published 2005) one finds melting point and IC50 data, which are given here for six molecules.

By melting point is commonly meant the temperature of the solid-liquid transition. By IC50 is commonly meant the concentration that gives 50% inhibition. The low end stands for greater potency, the high end for weaker potency.

One data set has as its target VEGFR II (KDR kinase) (Homo sapiens, UniProt P35968). As to the kind of experiment: Inhibition of KDR kinase activity (33P-ATP, poly-(Glu4Tyr) filter assay). The note with it: 10 minutes at room temperature; poly-(Glu4Tyr) substrate. The class given is biochemical. On the procedure:
Solutions Required for the Tests
Stock solution A: 3mM ATP in water pH 7.0 (−70° C.)
Stock solution B: g-33P-ATP 1 mCi/100 μl
Stock solution C: poly-(Glu4Tyr) 10 mg/ml in water
Substrate solvent: 10 mM DTT, 10 mM manganese chloride 100 mM magnesium chloride
Enzyme solution: 120 mM Tris/HCl, pH 7,5,10 μM sodium vanadium oxide
Inhibition of KDR- and FLT-1 kinase activity in the presence of the compounds according to the invention
10 μl of substrate mix [10 μl vol ATP stock solution A+25 μCi g-33P-ATP (ca. 2.5 μl of stock solution B)+30 μl poly-(Glu4Tyr) stock solution C+1.21 ml substrate solvent], 10 μl inhibitor solution [substances corresponding to the dilutions, as a control 3% DMSO in substrate solvent] and 10 μl enzyme solution [11.25 μg enzyme stock solution (KDR or FLT-1 kinase) are diluted at 4° C. in 1.25 ml enzyme solution], are added to a tapering microtitre plate (without protein binding). The mixture is mixed thoroughly and incubated for 10 minutes at room temperature. Subsequently, 10 μl of stop solution (250 mM EDTA, pH 7.0) is added, mixed and 10 μl of the solution transferred to a P 81 phosphocellulose filter. It is subsequently washed several times in 0.1 M phosphoric acid. The filter paper is dried, coated with MeltiLex and measured in a MicroBeta counter.
The IC50 values are determined from the concentration of inhibitor required to inhibit the phosphate incorporation to 50% of the uninhibited incorporation after deducting the reference value (EDTA-stopped reaction).

Chain of VEGFR II (KDR kinase) (P35968 20-1356): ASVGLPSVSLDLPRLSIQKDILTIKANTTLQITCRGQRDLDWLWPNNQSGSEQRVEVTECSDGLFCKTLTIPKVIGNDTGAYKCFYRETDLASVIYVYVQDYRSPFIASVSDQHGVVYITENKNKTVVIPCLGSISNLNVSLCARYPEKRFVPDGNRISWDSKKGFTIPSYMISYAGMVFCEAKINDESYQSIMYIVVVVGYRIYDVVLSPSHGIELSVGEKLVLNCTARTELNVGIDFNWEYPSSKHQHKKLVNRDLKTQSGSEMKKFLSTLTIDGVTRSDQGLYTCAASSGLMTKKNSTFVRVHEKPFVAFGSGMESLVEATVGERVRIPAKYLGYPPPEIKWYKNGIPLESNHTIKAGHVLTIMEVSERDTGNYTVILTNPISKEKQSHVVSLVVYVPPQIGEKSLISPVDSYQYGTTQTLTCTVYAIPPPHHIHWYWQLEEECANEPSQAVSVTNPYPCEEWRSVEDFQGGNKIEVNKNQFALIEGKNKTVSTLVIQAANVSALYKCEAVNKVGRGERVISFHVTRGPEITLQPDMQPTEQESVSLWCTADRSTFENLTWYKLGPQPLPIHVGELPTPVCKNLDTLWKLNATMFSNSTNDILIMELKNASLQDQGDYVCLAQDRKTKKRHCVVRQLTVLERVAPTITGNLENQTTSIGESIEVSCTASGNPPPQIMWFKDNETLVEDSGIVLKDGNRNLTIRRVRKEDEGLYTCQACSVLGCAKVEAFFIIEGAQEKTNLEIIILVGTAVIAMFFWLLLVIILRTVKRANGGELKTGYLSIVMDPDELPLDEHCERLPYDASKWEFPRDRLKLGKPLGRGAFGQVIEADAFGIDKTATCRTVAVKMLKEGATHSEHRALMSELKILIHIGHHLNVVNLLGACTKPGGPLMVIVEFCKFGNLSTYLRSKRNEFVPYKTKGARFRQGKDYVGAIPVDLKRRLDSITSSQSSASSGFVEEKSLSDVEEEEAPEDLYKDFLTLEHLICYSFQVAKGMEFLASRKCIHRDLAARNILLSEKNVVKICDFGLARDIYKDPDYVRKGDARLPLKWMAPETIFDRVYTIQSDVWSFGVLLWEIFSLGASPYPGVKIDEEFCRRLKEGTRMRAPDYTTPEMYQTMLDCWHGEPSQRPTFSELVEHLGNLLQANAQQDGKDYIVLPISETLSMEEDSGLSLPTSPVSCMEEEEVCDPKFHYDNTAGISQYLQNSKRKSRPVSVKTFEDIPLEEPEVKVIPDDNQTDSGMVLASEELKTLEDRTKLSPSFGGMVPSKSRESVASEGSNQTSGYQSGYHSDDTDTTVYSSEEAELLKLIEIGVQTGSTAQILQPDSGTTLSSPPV

Molecule `O=C(NC1CCCCCCC1)c1ccccc1NCc1ccncc1` [Example 1.4] gave a melting point of 103 to 104 °C. Moreover, it took 80 nM to reach half-maximal inhibition on VEGFR II (KDR kinase) (IC50).

Take `CC(C)(C)[C@H]1CC[C@H](NC(=O)c2ccccc2NCc2ccncc2)CC1` [Example 1.8]: the melting point worked out at 118.4 °C. Besides, the IC50 at VEGFR II (KDR kinase) amounted to 39 nM. In the case of `CCCCCCCCCCNC(=O)c1ccccc1NCc1ccncc1` [Example 1.14], 200 nM corresponded to half-maximal inhibition at VEGFR II (KDR kinase) (IC50). Same read-out and setting: for `CC(C)(C)CCNC(=O)c1ccccc1NCc1ccncc1` [Example 1.19] the value was 50 nM. The same measure, in the same setting: for `CC(C)CC(C)NC(=O)c1ccccc1NCc1ccncc1` (stereo not drawn) [Example 1.23] the value was 500 nM.

`O=C(NCCN1CCCCC1)c1ccccc1NCc1ccncc1` [Example 1.27] yielded a melting point of 65.2 °C. This molecule also displayed an IC50 at VEGFR II (KDR kinase) of 1000 nM.
